Measurements from patent US7196100B2, “Opioid receptor antagonists” (Eli Lilly and Company, priority 2004, dated 2007).

Legend:
Format in all cases: biochemical
[1] = target: kappa opioid receptor (KOR) (Homo sapiens, UniProt P41145); test: GTP-γ-S Binding Assay (SPA-based), antagonist mode vs U69593; conditions: In vitro antagonism; agonist U69593 300 nM; Kb by Cheng-Prusoff equation
Experimental: (§1) An SPA—based GTP-γ-S assay format was developed based on previous opioid (Emmerson et al., J. Pharm Exp Ther 278, 1121, 1996; Horng et al., Society for Neuroscience Abstracts, 434.6, 2000) and muscarinic (DeLapp et al., JPET 289, 946, 1999) assay formats. Membranes were re-suspended in 20 mM HEPES, 100 mM NaCl, 5 mM MgCl2, 1 mM DTT, and 1 mM EDTA. Fifty (50) […] of GTP-γ-[35S], compound, membrane suspension (20 microgram/well), and wheat germ agglutinin coated SPA beads (1 mg/well) were added to clear bottom 96 well assay plates. GDP ([…]) was added to the membrane solution prior to addition to the assay plates. Plates were sealed and incubated for four hours at room temperature then placed in a refrigerator overnight to allow the beads to settle. Signal stability at 4° C. was determined to be >60 hours. Plates were warmed to room temperature and counted in a Wallac Microbeta scintillation counter. For antagonist assays, specific agonists were added at the following concentrations: (MOR) DAMGO 1 micromolar, (DOR) DPDPE 30 nM, (KOR) U69593 300 nM. Kb's were determined by Cheng-Prusoff equation (see Cheng and Prusoff, Biochem. Pharmacol. 22, 3099, 1973).

mu opioid receptor (MOR) = mu opioid receptor (MOR) (Homo sapiens, UniProt P35372); test: GTP-γ-S Binding Assay (SPA-based), antagonist mode vs DAMGO; conditions: In vitro antagonism; agonist DAMGO 1 micromolar; Kb by Cheng-Prusoff equation
Experimental: as §1

[2] = target: delta opioid receptor (DOR) (Homo sapiens, UniProt P41143); test: GTP-γ-S Binding Assay (SPA-based), antagonist mode vs DPDPE; conditions: In vitro antagonism; agonist DPDPE 30 nM; Kb by Cheng-Prusoff equation
Experimental: as §1

Chain of mu opioid receptor (MOR) (P35372 whole entry): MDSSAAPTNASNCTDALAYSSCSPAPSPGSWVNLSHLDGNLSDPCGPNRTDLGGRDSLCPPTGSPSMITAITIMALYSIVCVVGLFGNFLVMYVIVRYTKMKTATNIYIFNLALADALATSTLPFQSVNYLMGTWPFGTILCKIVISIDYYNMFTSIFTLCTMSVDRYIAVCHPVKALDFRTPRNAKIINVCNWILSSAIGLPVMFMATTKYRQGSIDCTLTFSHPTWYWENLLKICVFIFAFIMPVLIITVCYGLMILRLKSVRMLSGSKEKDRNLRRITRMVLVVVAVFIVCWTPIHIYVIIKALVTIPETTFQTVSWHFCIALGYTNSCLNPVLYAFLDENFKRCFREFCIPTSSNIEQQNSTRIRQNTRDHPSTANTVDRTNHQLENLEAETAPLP
Chain of delta opioid receptor (DOR) (P41143 whole entry): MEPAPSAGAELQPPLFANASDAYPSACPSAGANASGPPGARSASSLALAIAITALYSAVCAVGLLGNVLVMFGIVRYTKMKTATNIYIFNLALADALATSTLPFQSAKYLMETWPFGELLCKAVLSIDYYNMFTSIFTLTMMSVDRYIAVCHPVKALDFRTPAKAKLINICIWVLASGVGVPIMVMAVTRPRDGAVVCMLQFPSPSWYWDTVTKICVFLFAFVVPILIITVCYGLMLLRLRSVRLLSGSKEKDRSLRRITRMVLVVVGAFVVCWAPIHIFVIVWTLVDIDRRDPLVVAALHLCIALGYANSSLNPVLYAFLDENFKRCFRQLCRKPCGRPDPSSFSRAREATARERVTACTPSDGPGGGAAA
Chain of kappa opioid receptor (KOR) (P41145 whole entry): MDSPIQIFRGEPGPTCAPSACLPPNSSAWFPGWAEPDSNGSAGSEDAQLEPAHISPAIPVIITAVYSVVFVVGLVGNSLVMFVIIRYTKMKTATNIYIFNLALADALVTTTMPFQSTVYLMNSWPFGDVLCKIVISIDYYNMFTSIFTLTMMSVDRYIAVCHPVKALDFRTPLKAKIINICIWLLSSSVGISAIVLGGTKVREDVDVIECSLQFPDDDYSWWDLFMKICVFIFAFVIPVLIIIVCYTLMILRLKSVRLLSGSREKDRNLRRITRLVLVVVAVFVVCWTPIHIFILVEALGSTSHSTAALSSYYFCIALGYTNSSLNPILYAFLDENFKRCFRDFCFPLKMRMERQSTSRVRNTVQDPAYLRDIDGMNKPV

Row | SMILES | Kb [1] | Kb (mu opioid receptor (MOR)) | Kb [2]
1 | NC(=O)c1ccc(OC2CCC(NCCC3CCOCC3)CC2)nc1 (racemic) [Example 1, ±6-{4-[2-(Tetrahydro-pyran-4-yl)-ethylamino]-cyclohexyloxy}-nicotinamide] | 0.601 µM | 0.566 µM | 0.819 µM
2 | CC(C)CCNC1CCC(Oc2ccc(C(N)=O)cn2)CC1 (racemic) [Example 2, ±6-[4-(3-Methyl-butylamino)-cyclohexyloxy]-nicotinamide] | 0.62 µM | 0.594 µM | 0.996 µM
3 | NC(=O)c1ccc(OC2CCN(Cc3ccccn3)CC2)nc1 [Example 6, 6-(1-Pyridin-2-ylmethyl-piperidin-4-yloxy)-nicotinamide] | 0.43 µM | > 1.8 µM | > 7.3 µM
4 | NC(=O)c1ccc(OC2CCN(CC3CC3)CC2)nc1 [Example 7, 6-(1-Cyclopropylmethyl-piperidin-4-yloxy)-nicotinamide] | 1.05 µM | 1.78 µM | > 7.3 µM
5 | NC(=O)c1ccc(OC2CCN(Cc3cc4ccccc4[nH]3)CC2)nc1 [Example 8, 6-[1-(1H-Indol-2-ylmethyl)-piperidin-4-yloxy]-nicotinamide] | 0.937 µM | > 1.85 µM | > 7.3 µM
6 | NC(=O)c1ccc(OC2CCN(Cc3ccccc3)CC2)cc1 [Example 9, 4-(1-Benzyl-piperidin-4-yloxy)-benzamide] | 0.93 µM | 1.12 µM | > 7.3 µM
7 | NC(=O)c1ccc(OC2CCN(CCCc3ccccc3)CC2)cc1 [Example 10, 4-[1-(3-Phenyl-propyl)-piperidin-4-yloxy]-benzamide] | 0.999 µM | 0.453 µM | 1.96 µM
